Where “and” joins values, the source holds several entries; their conditions need not be identical. Equal values may be shown once. Read-outs that look alike come from different tables or passages of the source. Square brackets hold non-standard residues; d marks the D form. Peptide text beside a SMILES is read from it. * marks the point of attachment. Cit = NC(=O)NCCC[C@H](N)C(=O)O; CH2Cl = ClC* A value given as a limit tells only on which side of the number the result lay.

As a reminder, the IC50 is the midpoint of a concentration-inhibition curve. As usually defined, the EC50 is the midpoint of the concentration-response curve. A word on the EC90: it is the concentration needed for an effect of 90%. In general, Cmax refers to the highest concentration seen after dosing. For orientation: Tmax means the time from dosing to the highest level.

In one data set the target is M^Pro (Severe acute respiratory syndrome coronavirus 2, UniProt P0DTD1). The data set is classed as biochemical. The conditions noted are these: for Ki: read-out: M^Pro Ki(app), apparent; for M^Pro kinact/KI: second-order rate constant for enzyme inactivation; for fold less potent M^Pro inhibitor than alkyne parent: probes lacking the alkyne versus their parents.
The target of another data set is Cathepsin L (Homo sapiens, UniProt P07711). In words: Cathepsin L inhibition. The data set is classed as biochemical. The conditions noted are these: for IC50: read-out: Cathepsin L IC50.
Chain of Cathepsin L (P07711 114-333): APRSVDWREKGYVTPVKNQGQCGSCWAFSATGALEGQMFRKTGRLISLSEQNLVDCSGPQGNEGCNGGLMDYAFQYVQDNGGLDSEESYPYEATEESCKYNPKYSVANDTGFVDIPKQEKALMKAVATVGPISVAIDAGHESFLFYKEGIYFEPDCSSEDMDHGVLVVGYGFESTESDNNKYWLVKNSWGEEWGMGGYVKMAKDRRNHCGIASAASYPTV
A further data set concerns the target Cathepsin B (Homo sapiens, UniProt P07858). Briefly: Cathepsin B inhibition. The conditions noted are these: read-out: Cathepsin B IC50. The data set is classed as biochemical.
Data set [1] has as its system SARS-CoV2. The data set is classed as cell-based. As to conditions: for EC50: read-out: EC50 for the inhibition of SARS-CoV-2 infection.
In another data set the target is PL^Pro (Severe acute respiratory syndrome coronavirus 2, UniProt P0DTD1). The conditions noted are these: read-out: PL^Pro IC50.
The target of another data set is CatL (Homo sapiens, UniProt P07711). As to conditions: SM144 5 μM, 24 h, live A549-hACE2 cells.
Chain of CatL (P07711 114-333): as above
Data set [2] deals with SARS-CoV2. The data set is classed as cell-based. As to conditions: Huh7.5 cells, 2 μM, 24 h, MOI 0.05.
A further data set can be described thus: Cytotoxicity. The data set is classed as cell-based.
The next data set relates to OC-43. Briefly: Inhibition of OC-43 in A549-hACE2 cells. As to conditions: to a lesser extent than SARS-CoV2. The data set is classed as cell-based.
The test system of a further data set is SARS-CoV2 pseudovirus. The data set is classed as cell-based.
In the next data set the test system is SARS-CoV-2. The data set is classed as cell-based. The conditions noted are these: relative to the DMSO control.
Data set [3] has as its system SARS-CoV2. The data set is classed as in vivo, K18-hACE2 transgenic mice. As to conditions: for SARS-CoV2-induced weight loss and lethality: intranasal, 10 mg/kg once daily for 3 days starting 2 h prior to infection; for lung histopathology: intraperitoneal treatment for 5 days; for SARS-CoV-2-induced weight loss and lethality: intraperitoneal, 25 mg/kg twice daily for 5 days, post-infection; for viral RNA loads and titers in lung tissue: versus vehicle control, 72 h treatment.

Data set [4] in a line: Weight loss in mock infected mice. As to conditions: mouse, in vivo.
Data set [5] in a line: Pharmacokinetics in BALB-6c mice. The conditions noted are these: for adverse events or signs of toxicity: at the tested doses.

On to `CCOC(=O)C=CC(CC1CCNC1=O)NC(=O)C(Cc1ccc(F)cc1)NC(=O)C(N)Cc1ccccc1` (stereo not drawn) [SM137], for which, at M^Pro, the Ki is 50 ± 6 µM and the “M^Pro kinact/KI” value is listed as “(1.8 ± 0.2)×10^3 M^−1min^−1”.
On to `C#CCOCCC(=O)NC(Cc1ccc(F)cc1)C(=O)NC(Cc1ccccc1)C(=O)NC(C=CC(=O)OCC)CC1CCNC1=O` (stereo not drawn) [SM144], for which, at M^Pro, the Ki was found to be 4.5 ± 0.5 µM and the “M^Pro kinact/KI” value is “(3.4 ± 0.1)×10^4 M^−1min^−1”. On Cathepsin L, the “Cathepsin L kinact/KI” value is on record as “(6 ± 0.2)×10^4 M^−1min^−1” and the concentration for half-maximal inhibition (IC50) was found to be 0.22 ± 0.026 µM. Besides, at Cathepsin B, the half-maximal inhibitory concentration (IC50) was above 50 µM. In addition, the “antiviral activity compared with SM141 and SM142” value in the data set with SARS-CoV2 [1] is “significantly lower antiviral activity”. Moreover, the IC50 at PL^Pro was above 50 µM. Moreover, the “enrichment of CatL” value on CatL is given as above 128 fold.
As for `N=C(N)NCCC[C@H](NC(=O)[C@H](Cc1ccccc1)NC(=O)[C@H](N)Cc1ccccc1)C(=O)CCl` [D-FFR-CMK] (H-[dF]-Phe-Arg-CH2Cl), the “fold less potent M^Pro inhibitor than alkyne parent” value at M^Pro is listed as 4–5 fold. Also, the half-maximal inhibitory concentration (IC50) on PL^Pro came to 5 ± 0.3 µM.
For the compound `C#CCOCCC(=O)NC(Cc1ccccc1)C(=O)NC(Cc1ccccc1)C(=O)NC(C=CC(=O)OCC)CC1CCNC1=O` (stereo not drawn) [SM145], the Ki on M^Pro amounted to 5.3 ± 0.4 µM. Moreover, at Cathepsin L, the “Cathepsin L kinact/KI” value is “(2.5 ± 0.01)×10^4 M^−1min^−1”. The IC50 on Cathepsin L is 0.2 ± 0.004 µM; on Cathepsin B it was above 50 µM; at PL^Pro it was above 50 µM. The “antiviral activity compared with SM141 and SM142” value in the data set on SARS-CoV2 [1] is given as “significantly lower antiviral activity”.
As to `NC(=O)NCCC[C@H](NC(=O)[C@H](Cc1ccccc1)NC(=O)[C@H](N)Cc1ccccc1)C(=O)CCl` [D-FFCit-CMK] (H-[dF]-Phe-[Cit]-CH2Cl), the “fold less potent M^Pro inhibitor than alkyne parent” value at M^Pro is recorded as 4–5 fold. In addition, the IC50 on PL^Pro is above 50 µM.
In the case of `CCOC(=O)C=CC(CC1CCNC1=O)NC(=O)C(Cc1ccccc1)NC(=O)C(Cc1ccccc1)NC(=O)OC(C)(C)C` (stereo not drawn) [SM140], the Ki at M^Pro was determined as 16 ± 2 µM. The “M^Pro kinact/KI” value at M^Pro is reported as “(9.0 ± 0.2)×10^3 M^−1min^−1”. Besides, the IC50 on Cathepsin B and on PL^Pro was above 50 µM each time.
In the case of `CCOC(=O)C=CC(CC1CCNC1=O)NC(=O)C(Cc1ccccc1)NC(=O)C(N)Cc1ccccc1` (stereo not drawn) [SM141], on M^Pro, the Ki is 9 ± 1 µM and the “M^Pro kinact/KI” value is listed as “(2.0 ± 0.2)×10^4 M^−1min^−1”. Further, on Cathepsin L, the “Cathepsin L kinact/KI” value was “(1.9 ± 0.5)×10^5 M^−1min^−1” and the IC50 was 0.06 ± 0.001 µM. For the same compound, on Cathepsin L (from IC50 and kinact/KI values), the “fold more potent for CatL inhibition than M^Pro” value is recorded as 10 fold. Moreover, on Cathepsin B, the half-maximal inhibitory concentration (IC50) is above 50 µM. Further, the “fold by which the antiviral EC50 is lower than potency for M^Pro inhibition” value with SARS-CoV2 [1] is recorded as “more than 100 fold”. In addition, the antiviral activity entry in the data set with SARS-CoV2 [1] (A549-hACE2 cells, 2 μM, 24 h, MOI 0.05) is listed as “almost completely blocks viral infection”. The EC50 in the data set on SARS-CoV2 [1] (A549-hACE2 cells) was 0.0082 µM. Also, the 90% effect concentration (EC90) in the data set on SARS-CoV2 [1] (read-out: EC90 for the inhibition of SARS-CoV-2 infection, A549-hACE2 cells) came to 0.0221 µM. Further, in the data set with SARS-CoV2 [2], the antiviral activity entry is “almost completely blocks viral infection”. Besides, the “concentration up to which no notable cytotoxicity is caused” value in the data set “Cytotoxicity” is 50000 nM. Moreover, the “inhibition of OC-43” value in the data set with OC-43 was “inhibits OC-43”. Also, the “additional inhibition of pseudovirus entry in CatL knockdown cells” value in the data set with SARS-CoV2 pseudovirus is reported as “did not show any significant additional inhibitory activity”. The “inhibition of live virus infection in CatL knockdown cells” value with SARS-CoV-2 is reported as “do inhibit live virus infection”. Besides, in the data set with SARS-CoV2 [3], the “SARS-CoV2-induced weight loss and lethality” value is “protects mice from SARS-CoV2-induced weight loss and lethality”; the lung histopathology entry was “significant reduction in lung inflammation and improved overall lung pathology”; the “SARS-CoV-2-induced weight loss and lethality” value was “protects K18-ACE2 mice from SARS-CoV-2-induced weight loss and lethality”; the “viral RNA loads and titers in lung tissue” value is “remarkably lower”. For the same compound, the “weight loss in mock infected mice” value in data set [4] is given as “no significant weight loss”. Besides, on PL^Pro, the IC50 was above 50 µM. In addition, in [5] (IP), the “% Bioavailability” value is given as 35.2%, the AUCINF_obs turned out to be 49620 ng·min/mL, the AUClast worked out at 1.6 µM·h and the concentration peaked (Cmax) at 2700 nM. Also, in data set [5] (IP), the T1/2 was 48 min and the time to peak (Tmax) amounted to 8.4 min. In data set [5] (IV), this compound gave an AUCINF_obs of 42350 ng·min/mL, an AUClast of 1.3 µM·h, a CI_Obs of 71.5 mL/min/kg and a Cmax of 3900 nM. Besides, in [5] (IV), the MRTINF_obs was 24 min, the T1/2 turned out to be 48 min, the time to peak (Tmax) is 4.8 min and the VSS_obs was determined as 1.6 L/kg. Besides, in [5] (PO), the “% Bioavailability” value is 5%, the AUCINF_obs amounted to 7325 ng·min/mL, the AUClast was found to be 0.14 µM·h and the Cmax is 200 nM. The Tmax in [5] (PO) was found to be 48 min. The “adverse events or signs of toxicity” value in data set [5] is reported as “no adverse events or signs of toxicity were observed”.
`CCOC(=O)C=CC(CC1CCNC1=O)NC(=O)C(Cc1ccc(F)cc1)NC(=O)C(Cc1ccccc1)NC(=O)OC(C)(C)C` (stereo not drawn) [SM136]: on M^Pro, the Ki amounted to 73 ± 4 µM and the “M^Pro kinact/KI” value is reported as “(7.7 ± 0.3)×10^2 M^−1min^−1”.
In the case of `CCOC(=O)C=CC(CC1CCNC1=O)NC(=O)C(Cc1ccccc1)NC(=O)C(Cc1ccc(F)cc1)NC(=O)OC(C)(C)C` (stereo not drawn) [SM142], at M^Pro, the Ki is 10 ± 1 µM and the “M^Pro kinact/KI” value is given as “(1.1 ± 0.3)×10^4 M^−1min^−1”. Besides, on Cathepsin L, the “Cathepsin L kinact/KI” value is “(1.1 ± 0.01)×10^5 M^−1min^−1” and the concentration for half-maximal inhibition (IC50) came to 0.145 ± 0.014 µM. For the same compound, the IC50 on Cathepsin B is 40 ± 9 µM. In addition, the “fold by which the antiviral EC50 is lower than potency for M^Pro inhibition” value with SARS-CoV2 [1] is recorded as “more than 100 fold”. The EC50 in the data set with SARS-CoV2 [1] (A549-hACE2 cells) is 0.0147 µM. Also, the “inhibition of OC-43” value in the data set on OC-43 is “inhibits OC-43”. Further, the “additional inhibition of pseudovirus entry in CatL knockdown cells” value in the data set on SARS-CoV2 pseudovirus is “did not show any significant additional inhibitory activity”. In addition, the “inhibition of live virus infection in CatL knockdown cells” value in the data set with SARS-CoV-2 is “do inhibit live virus infection”. In addition, in the data set with SARS-CoV2 [3], the “SARS-CoV2-induced weight loss and lethality” value was “protects mice from SARS-CoV2-induced weight loss and lethality”; the lung histopathology entry is “significant reduction in lung inflammation and improved overall lung pathology”; the “SARS-CoV-2-induced weight loss and lethality” value is “protects K18-ACE2 mice from SARS-CoV-2-induced weight loss and lethality”; the “viral RNA loads and titers in lung tissue” value is reported as “remarkably lower”. Further, the “weight loss in mock infected mice” value in [4] is on record as “no significant weight loss”. Moreover, the half-inhibitory concentration (IC50) at PL^Pro was above 50 µM. In data set [5] (IV), this compound showed an AUCINF_obs of 18490 ng·min/mL, an AUClast of 0.4 µM·h, a CI_Obs of 169 mL/min/kg and a Cmax of 400 nM. Also, in data set [5] (IV), the MRTINF_obs stood at 114 min, the T1/2 came to 126 min, the Tmax stood at 4.8 min and the VSS_obs amounted to 13.2 L/kg. Further, in [5] (PO), the “% Bioavailability” value is 38% and 37.5%; the AUCINF_obs amounted to 20843 ng·min/mL; the AUClast came to 0.5 µM·h; the Cmax stood at 600 nM. For the same compound, in data set [5] (PO), the T1/2 was 126 min and the time to peak (Tmax) stood at 4.8 min. Further, the “adverse events or signs of toxicity” value in data set [5] is “no adverse events or signs of toxicity were observed”. The volume of distribution in data set [5] (calculated) is recorded as 13 L/kg.

These data come from publication PMC9662648 (Journal of the American Chemical Society, 2022).
